EP4273147A1, “SUBSTITUTED SPIROLACTAMS, SALTS THEREOF AND THEIR USE AS HERBICIDALLY ACTIVE SUBSTANCES” (Bayer Aktiengesellschaft, priority 2022, dated 2023)

Key:
ECHCG [1] = test: Herbicidal pre-emergence action (Table A2); type: in vivo, Echinochloa crus-galli; conditions: visual grading after ca. 3 weeks
Excerpt: (§1) Seeds of mono- and dicotyledonous weed plants were sown in plastic pots (double sowings with one species of mono- and one species of dicotyledonous weed plants per pot), in sandy loam, and covered with soil.

LOLRI = test: Herbicidal pre-emergence action (Table A3); type: in vivo, Lolium rigidum; conditions: visual grading after ca. 3 weeks
Excerpt: as §1

MATIN = test: Herbicidal pre-emergence action (Table A4); type: in vivo, Matricaria inodora; conditions: application rate 320 g/ha; visual grading after ca. 3 weeks
Excerpt: as §1

SETVI [2] = test: Herbicidal pre-emergence action (Table A5); type: in vivo, Setaria viridis; conditions: visual grading after ca. 3 weeks
Excerpt: as §1

POAAN [3] = test: Herbicidal pre-emergence action (Table A7); type: in vivo, Poa annua; conditions: visual grading after ca. 3 weeks
Excerpt: as §1

ALOMY = test: Herbicidal pre-emergence action (Table A9); type: in vivo, Alopecurus myosuroides; conditions: application rate 1280 g/ha; visual grading after ca. 3 weeks
Excerpt: as §1

ECHCG [4] = test: Herbicidal post-emergence action (Table B3); type: in vivo, Echinochloa crus-galli; conditions: application rate 1280 g/ha; rated visually after about 3 weeks
Experimental: (§2) Seeds of mono- and dicotyledonous weed plants were placed in plastic pots in sandy loam soil (doubly sown with in each case one species of mono- or dicotyledonous weed plants per pot), covered with soil and cultivated in a greenhouse under controlled growth conditions. 2 to 3 weeks after sowing, the test plants were treated at the one-leaf stage. […] After the test plants had been kept in the greenhouse under optimum growth conditions for about 3 weeks, the activity of the preparations was rated visually in comparison to untreated controls. For example, 100% activity = the plants have died, 0% activity = like control plants.

POAAN [5] = test: Herbicidal post-emergence action (Table B7); type: in vivo, Poa annua; conditions: application rate 1280 g/ha
Experimental: as §2

SETVI [6] = test: Herbicidal post-emergence action (Table B8); type: in vivo, Setaria viridis; conditions: application rate 1280 g/ha
Experimental: as §2

VERPE [7] = test: Herbicidal pre-emergence action (Table A11); type: in vivo, Veronica persica; conditions: application rate 1280 g/ha; visual grading after ca. 3 weeks
Excerpt: as §1

VERPE [8] = test: Herbicidal post-emergence action (Table B10); type: in vivo, Veronica persica
Experimental: as §2

STEME = test: Herbicidal pre-emergence action (Table A6); type: in vivo, Stellaria media; conditions: visual grading after ca. 3 weeks
Excerpt: as §1

KCHSC = test: Herbicidal pre-emergence action (Table A10); type: in vivo, Kochia scoparia; conditions: application rate 1280 g/ha; visual grading after ca. 3 weeks
Excerpt: as §1

DIGSA = test: Herbicidal pre-emergence action (Table A12); type: in vivo, Digitaria sanguinalis; conditions: visual grading after ca. 3 weeks
Excerpt: as §1

Compound | pre-emergence activity against ECHCG (ECHCG [1]; application rate 320 g/ha) [%] | pre-emergence activity against LOLRI (LOLRI; application rate 320 g/ha) [%] | pre-emergence activity against SETVI (SETVI [2]; application rate 320 g/ha) [%] | pre-emergence activity against POAAN (POAAN [3]; application rate 320 g/ha) [%] | pre-emergence activity against ALOMY (ALOMY) [%] | post-emergence activity against POAAN (POAAN [5]) [%] | post-emergence activity against SETVI (SETVI [6]) [%] | post-emergence activity against VERPE (VERPE [8]; application rate 1280 g/ha) [%] | pre-emergence activity against ECHCG (ECHCG [1]; application rate 1280 g/ha) [%] | pre-emergence activity against SETVI (SETVI [2]; application rate 1280 g/ha) [%] | pre-emergence activity against DIGSA (DIGSA; application rate 1280 g/ha) [%] | further results
O=C1N(Cc2ccccc2F)CCCC12CCCN(Cc1ccccc1Cl)C2=O (racemic) [I-036] | 100 | 100 | 100 | 90 | 90 | 90 | 90 | – | – | – | – | pre-emergence activity against MATIN (MATIN): 90%; post-emergence activity against ECHCG (ECHCG [4]): 90%
O=C1N(Cc2ccccc2Cl)CCCC12CCCN(Cc1ccccc1Cl)C2=O (racemic) [I-054] | 100 | – | 100 | 100 | – | – | – | 90 | – | – | – | pre-emergence activity against VERPE (VERPE [7]): 90%
O=C1N(Cc2ccccc2F)CCC12CCCN(Cc1cccc(F)c1F)C2=O (racemic) [I-085] | – | 100 | – | 100 | 90 | 90 | 90 | – | 100 | 100 | – | pre-emergence activity against MATIN (MATIN): 90%; pre-emergence activity against STEME (STEME; application rate 320 g/ha): 90%; pre-emergence activity against KCHSC (KCHSC): 90%; pre-emergence activity against DIGSA (DIGSA; application rate 320 g/ha): 90%
O=C1N(Cc2ccccc2C(F)(F)F)CCCC12CCCN(Cc1ccccc1C(F)(F)F)C2=O (racemic) [I-091] | – | – | – | – | – | – | – | – | 100 | – | 100 | pre-emergence activity against POAAN (POAAN [3]; application rate 1280 g/ha): 100%; post-emergence activity against VERPE (VERPE [8]; application rate 320 g/ha): 90%
Cc1ccccc1CN1CCCC2(CCCN(Cc3ccccc3)C2=O)C1=O (racemic) [I-092] | 100 | – | 90 | – | – | 90 | – | – | – | – | – | pre-emergence activity against LOLRI (LOLRI; application rate 1280 g/ha): 100%; post-emergence activity against VERPE (VERPE [8]; application rate 320 g/ha): 90%
Cc1nc(Cl)sc1CN1CCCC2(CCCN(Cc3sc(Cl)nc3C)C2=O)C1=O (racemic) [I-201, 2,8-bis[(2-chloro-4-methyl-1,3-thiazol-5-yl)methyl]-2,8-diazaspiro[5.5]undecane-1,7-dione] | – | – | – | – | 100 | 90 | 90 | – | – | – | 90 | pest or weed control at 1280 g/ha (LOLRI; Lolium rigidum, pre-emergence, 504 h, application rate 1280 g/ha, read-out: pre-emergence activity against LOLRI): 100%; pest or weed control at 320 g/ha (POAAN [3]; Poa annua, pre-emergence, 504 h, application rate 320 g/ha, read-out: pre-emergence activity against POAAN): 100%
O=C1N(Cc2ccccc2F)CCCC12CCCN(Cc1ccccc1F)C2=O (single isomer, unassigned) [I-056] | – | – | – | 100 | – | – | – | 90 | 100 | 100 | 100 | pre-emergence activity against LOLRI (LOLRI; application rate 1280 g/ha): 100%; pre-emergence activity against STEME (STEME; application rate 1280 g/ha): 90%
O=C1N(Cc2cccs2)CCCC12CCCN(Cc1ccccc1Cl)C2=O (stereo not shown) [I-062] | – | 100 | 100 | 100 | – | 90 | – | 90 | 100 | – | – | pre-emergence activity against STEME (STEME; application rate 320 g/ha): 90%
CC(c1ccccc1F)N1CCCC2(CCCN(C(C)c3ccccc3F)C2=O)C1=O (stereo not shown) [I-115] | – | – | – | – | – | – | – | 90 | – | 100 | – | pre-emergence activity against STEME (STEME; application rate 1280 g/ha): 100%; pre-emergence activity against POAAN (POAAN [3]; application rate 1280 g/ha): 90%
